Data as given in article PMC10367051, “Comprehensive Mechanistic View of the Hydrolysis of Oxadiazole-Based Inhibitors by Histone Deacetylase 6 (HDAC6)” (ACS Chemical Biology, 2023).

Key:
zHDAC6 (WT) = target: T1, zHDAC6 (WT) (Danio rerio, UniProt F8W4B7); test: Inhibition assay, zebrafish HDAC6 catalytic DD2 domain, wild type; assay type: biochemical
T1 construct: Danio rerio HDAC6 (amino acids 440–798; zHDAC6); His (N, cleaved yes); MBP (N, cleaved yes); made in house; host or cells: RIPL Escherichia coli
T1 sequence (F8W4B7 440-798): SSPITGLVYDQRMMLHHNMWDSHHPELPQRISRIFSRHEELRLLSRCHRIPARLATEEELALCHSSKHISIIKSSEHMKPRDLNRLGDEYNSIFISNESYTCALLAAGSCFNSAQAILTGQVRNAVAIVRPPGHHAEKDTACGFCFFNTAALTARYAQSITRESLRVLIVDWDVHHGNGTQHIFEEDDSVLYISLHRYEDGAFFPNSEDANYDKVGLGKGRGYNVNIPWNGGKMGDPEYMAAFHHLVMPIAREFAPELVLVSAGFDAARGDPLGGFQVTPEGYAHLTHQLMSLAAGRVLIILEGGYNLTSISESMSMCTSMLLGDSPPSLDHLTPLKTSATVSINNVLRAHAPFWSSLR
Description: The second catalytic domain of Danio rerio HDAC6 (amino acids 440–798; zHDAC6) was expressed in RIPL Escherichia coli as described previously using the pEC566-zHDAC6 expression vector.[16],[38] Briefly, bacteria were incubated at 37 °C with shaking (250 rpm) until the optical density reached an OD600 = 0.5. Then, the culture was cooled to 18 °C for 1 h, and recombinant protein expression was induced by the addition of 75 μM isopropyl β-D-1-thiogalactopyranoside together with 200 μM ZnSO4. The culture was grown at 18 °C for an additional 18 h and harvested by centrifugation at 5500g for 15 min. The cell pellet was resuspended in the lysis buffer (50 mM phosphate, 300 mM NaCl, 10% glycerol, and 20 mM imidazole at pH 8; 5 mL g^–1 bacterial pellet) and lysed by three passages through EmulsiFlex (Avestin). Cell lysates were centrifuged (15,000g at 4 °C for 20 min), and the fusion protein in the supernatant was purified via Ni-NTA chromatography. […] The purity of protein preparations was monitored by SDS-PAGE (Figure S2).
Optimized fluorometric assays were used to determine inhibition constants of studied compounds against individual HDAC isoforms as described previously.[32] […] Deacetylation reactions were monitored either by high-performance liquid chromatography (HPLC) (HDAC10) or by quantification of released AMC (λex/λem = 365/440 nm) using a CLARIOstar plate reader (BMG Labtech GmbH).

[1] = Control reaction without the enzyme (assay buffer, LC-MS/MS); assay type: physicochemical; settings: 20 μM 8, assay buffer pH 7.4, 30 °C
Description: Mass spectrometry quantification of inhibitors/reaction products was carried out with a Shimadzu LCMS-8040 instrument (Shimadzu, HPLC Prominence system). Analytes were separated on a Kinetex XB-C18 2.6 μm, 100 Å column (50 × 2.1 mm; Phenomenex) in a linear 15–60% CH3CN/H2O gradient containing 0.1% formic acid at a flow rate of 0.8 mL min^–1 over 4 min. Multiple reaction monitoring (MRM) parameters were optimized for each analyte, and corresponding major CID fragments were used for quantification. Analytes were quantified using corresponding calibration curves generated from pure compounds dissolved in water.
Twenty micromolar solutions of compounds were mixed with 1 μM zHDAC6 in a 96-well plate in an assay buffer comprising 50 mM HEPES, 140 mM NaCl, and 10 mM KCl at pH 7.4. […] Four microliter aliquots of reaction mixtures were injected into the system directly from the 96-well plate, and inhibitors/reaction products were quantitated as described above.

[2] = tested on: HEK293/HDAC6 cell lysates (stably transfected with human HDAC6); test: Inhibitor hydrolysis in HEK293/HDAC6 cell lysates (LC-MS/MS); assay type: in vitro ADME; settings: 20 μM 8, 2.5 mg mL^–1 protein, 37 °C
Description: HEK293 cells stably transduced with full-length human HDAC6 were generated following the protocol published previously.[40] Briefly, Lenti-X 293T and HEK293T cells were grown in T75 flasks in the DMEM/F-12/10% fetal bovine serum (FBS) medium under an atmosphere containing 5% CO2 at 37 °C. The Lenti-X 293T cells were transfected with the combination of pMD.2G, psPAX2, and pHR_CMV_MM320_hsHD6 (Figure S2) using Lipofectamine2000 (Invitrogen) according to the manufacturer’s protocol. Three days post-transfection, the virion-rich medium was collected by centrifugation, supplemented with polybrene (final concentration 10 μg mL^–1), and added to adherent HEK293T cells grown to 100% confluency. Three days post-infection, transduced HEK293T cells were expanded in FreeStyle 293 medium (GIBCO) supplemented with 1% FBS in an Erlenmeyer flask (suspension culture, 110 RPM). Transduction efficacy was determined by flow cytometry analysis to be >95%.
Mass spectrometry quantification of inhibitors/reaction products was carried out with a Shimadzu LCMS-8040 instrument (Shimadzu, HPLC Prominence system). […] Multiple reaction monitoring (MRM) parameters were optimized for each analyte, and corresponding major CID fragments were used for quantification. Analytes were quantified using corresponding calibration curves generated from pure compounds dissolved in water. […]

Row | Structure (SMILES) | IC50 (zHDAC6 (WT)) [µM] | hydrolysis in the control reaction without the enzyme [1] | efficiency of hydrolysis in HEK293/HDAC6 lysate versus HEK293 lysate [2] | hydrolysis in HEK293/HDAC6 cell lysate [2]
1 | CS(=O)(=O)N(Cc1ccc(C(=O)NN)cn1)c1cccc(Cl)c1 [compound 4] | 3.87 ± 1.64 | – | – | –
2 | CS(=O)(=O)N(Cc1ccc(C(=O)NNC(=O)C(F)F)cn1)c1cccc(Cl)c1 [compound 6] | 41.7 | – | – | –
3 | CS(=O)(=O)N(Cc1ccc(-c2nnc(C(F)F)o2)cn1)c1cccc(Cl)c1 [compound 8] | – | no hydrolysis was observed | more efficient | hydrolyzed 8 to 6 and 4
